Test results from PMC5428509, “Irreversible inhibition of BTK kinase by a novel highly selective inhibitor CHMFL-BTK-11 suppresses inflammatory response in rheumatoid arthritis model” (Scientific Reports, 2017).

Tests used:
Assay in all cases: biochemical
Design in all cases: KinomeScan competition binding panel (DiscoveRx), percent of control at 1 uM
Conditions in all cases: read-out: Percent Control
[1] = molecular target: T1, RSK2(Kin.Dom.1-N-terminal) (Homo sapiens, UniProt P51812)
T1 construct: gene RPS6KA3; Kin.Dom.1-N-terminal
Source text: (§1) In order to further confirm the binding mode, we then tested the compounds in the BTK wild-type (wt) and BTK C481S mutant with immunoblotting by looking at the BTK Y551 auto-phosphorylation. […] In addition, a covalent bond was preferred to form between the […] acrylamide and Cys-481 near the hinge binding area, which further confirmed its irreversible binding mode (Fig. 1d). We next investigated CHMFL-BTK-11′s selectivity profile in 456 kinases/mutants with KinomeScan^TM technology.

MAP4K5 = MAP4K5 (Homo sapiens, UniProt Q9Y4K4)
Source text: as §1

MYO3B = MYO3B (Homo sapiens, UniProt Q8WXR4)
Source text: as §1

[2] = molecular target: T2, ABL1(E255K)-phosphorylated (Homo sapiens, UniProt P00519, E255K)
T2 construct: phosphorylated
Source text: as §1

[3] = molecular target: T3, ABL1(T315I)-phosphorylated (Homo sapiens, UniProt P00519, T315I)
T3 construct: phosphorylated
Source text: as §1

SIK2 = SIK2 (Homo sapiens, UniProt Q9H0K1)
Source text: as §1

SRC = SRC (Homo sapiens, UniProt P12931)
Source text: as §1

BRSK2 = BRSK2 (Homo sapiens, UniProt Q8IWQ3)
Source text: as §1

ANKK1 = ANKK1 (Homo sapiens, UniProt Q8NFD2)
Source text: as §1

EGFR(G719C) = EGFR(G719C) (Homo sapiens, UniProt P00533, G719C)
Source text: as §1

EGFR = EGFR (Homo sapiens, UniProt P00533)
Source text: as §1

FLT3(D835H) = FLT3(D835H) (Homo sapiens, UniProt P36888, D835H)
Source text: as §1

EPHB4 = EPHB4 (Homo sapiens, UniProt P54760)
Source text: as §1

PDGFRA = PDGFRA (Homo sapiens, UniProt P16234)
Source text: as §1

EGFR(T790M) = EGFR(T790M) (Homo sapiens, UniProt P00533, T790M)
Source text: as §1

FLT3-autoinhibited = FLT3-autoinhibited (Homo sapiens, UniProt P36888)
Source text: as §1

CSK = CSK (Homo sapiens, UniProt P41240)
Source text: as §1

PRKD2 = PRKD2 (Homo sapiens, UniProt Q9BZL6)
Source text: as §1

CSNK1D = CSNK1D (Homo sapiens, UniProt P48730)
Source text: as §1

MAP3K2 = MAP3K2 (Homo sapiens, UniProt Q9Y2U5)
Source text: as §1

PAK2 = PAK2 (Homo sapiens, UniProt Q13177)
Source text: as §1

MINK = molecular target: T4, MINK (Homo sapiens, UniProt Q8N4C8)
T4 construct: gene MINK1
Source text: as §1

CDK11 = molecular target: T5, CDK11 (Homo sapiens, UniProt Q9BWU1)
T5 construct: gene CDK19
Source text: as §1

RET(M918T) = RET(M918T) (Homo sapiens, UniProt P07949, M918T)
Source text: as §1

CAMKK2 = CAMKK2 (Homo sapiens, UniProt Q96RR4)
Source text: as §1

PDGFRA, sequence (P16234 whole entry): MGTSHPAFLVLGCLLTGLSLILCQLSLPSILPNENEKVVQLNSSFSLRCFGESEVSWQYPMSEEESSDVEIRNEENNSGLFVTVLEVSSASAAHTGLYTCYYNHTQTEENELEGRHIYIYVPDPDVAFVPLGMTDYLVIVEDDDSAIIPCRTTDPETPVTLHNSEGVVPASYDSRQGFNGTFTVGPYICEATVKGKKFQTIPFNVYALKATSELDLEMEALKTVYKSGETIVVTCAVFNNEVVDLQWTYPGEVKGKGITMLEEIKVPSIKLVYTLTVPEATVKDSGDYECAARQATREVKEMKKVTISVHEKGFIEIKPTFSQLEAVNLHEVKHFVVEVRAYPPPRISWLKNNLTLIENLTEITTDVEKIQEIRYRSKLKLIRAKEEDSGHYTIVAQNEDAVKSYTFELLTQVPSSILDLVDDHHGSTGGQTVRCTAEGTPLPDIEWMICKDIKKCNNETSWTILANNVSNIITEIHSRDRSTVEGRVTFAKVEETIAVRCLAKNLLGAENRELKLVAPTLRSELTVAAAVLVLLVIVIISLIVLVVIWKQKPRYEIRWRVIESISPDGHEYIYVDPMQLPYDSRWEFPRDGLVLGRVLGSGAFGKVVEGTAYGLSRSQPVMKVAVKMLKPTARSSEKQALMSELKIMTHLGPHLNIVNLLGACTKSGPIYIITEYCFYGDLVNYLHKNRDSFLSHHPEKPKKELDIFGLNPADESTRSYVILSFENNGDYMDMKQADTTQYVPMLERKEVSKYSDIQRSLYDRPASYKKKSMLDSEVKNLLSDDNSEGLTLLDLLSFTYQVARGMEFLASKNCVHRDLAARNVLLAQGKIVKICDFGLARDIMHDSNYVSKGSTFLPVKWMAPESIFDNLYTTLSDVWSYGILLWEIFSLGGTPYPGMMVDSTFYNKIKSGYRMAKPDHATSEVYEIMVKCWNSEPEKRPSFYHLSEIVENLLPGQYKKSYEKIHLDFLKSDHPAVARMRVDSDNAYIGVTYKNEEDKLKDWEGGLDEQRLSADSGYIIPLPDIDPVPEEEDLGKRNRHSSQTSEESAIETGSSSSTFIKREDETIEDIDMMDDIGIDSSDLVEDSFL
EGFR, sequence (P00533 whole entry): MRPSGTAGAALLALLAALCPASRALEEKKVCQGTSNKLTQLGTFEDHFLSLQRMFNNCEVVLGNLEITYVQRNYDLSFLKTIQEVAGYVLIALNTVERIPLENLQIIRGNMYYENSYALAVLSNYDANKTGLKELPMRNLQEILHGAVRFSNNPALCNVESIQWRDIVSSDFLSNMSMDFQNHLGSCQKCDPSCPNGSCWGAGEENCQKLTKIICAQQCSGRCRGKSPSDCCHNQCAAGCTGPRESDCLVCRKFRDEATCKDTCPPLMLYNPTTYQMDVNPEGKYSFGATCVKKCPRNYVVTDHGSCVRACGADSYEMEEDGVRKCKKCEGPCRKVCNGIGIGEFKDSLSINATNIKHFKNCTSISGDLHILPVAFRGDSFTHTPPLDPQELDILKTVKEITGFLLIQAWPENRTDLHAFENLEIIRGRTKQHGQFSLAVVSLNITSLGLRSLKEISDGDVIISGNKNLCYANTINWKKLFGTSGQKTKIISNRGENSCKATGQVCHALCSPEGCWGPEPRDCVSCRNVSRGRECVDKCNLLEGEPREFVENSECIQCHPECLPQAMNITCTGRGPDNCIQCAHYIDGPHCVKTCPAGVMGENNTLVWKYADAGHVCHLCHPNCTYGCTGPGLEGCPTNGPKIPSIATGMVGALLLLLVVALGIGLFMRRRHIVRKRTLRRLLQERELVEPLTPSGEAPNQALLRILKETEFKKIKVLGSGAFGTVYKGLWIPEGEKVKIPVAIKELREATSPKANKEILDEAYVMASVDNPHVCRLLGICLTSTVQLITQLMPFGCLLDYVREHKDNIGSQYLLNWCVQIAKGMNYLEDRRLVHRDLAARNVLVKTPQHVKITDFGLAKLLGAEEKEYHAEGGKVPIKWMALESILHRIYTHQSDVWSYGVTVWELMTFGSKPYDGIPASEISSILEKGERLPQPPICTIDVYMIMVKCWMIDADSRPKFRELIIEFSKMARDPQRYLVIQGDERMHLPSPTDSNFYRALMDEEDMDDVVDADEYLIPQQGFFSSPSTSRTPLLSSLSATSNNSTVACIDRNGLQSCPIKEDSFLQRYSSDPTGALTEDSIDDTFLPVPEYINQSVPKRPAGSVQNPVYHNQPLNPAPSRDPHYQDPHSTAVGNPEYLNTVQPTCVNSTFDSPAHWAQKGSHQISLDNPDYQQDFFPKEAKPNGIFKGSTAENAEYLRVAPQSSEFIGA
T4 sequence (Q8N4C8 whole entry): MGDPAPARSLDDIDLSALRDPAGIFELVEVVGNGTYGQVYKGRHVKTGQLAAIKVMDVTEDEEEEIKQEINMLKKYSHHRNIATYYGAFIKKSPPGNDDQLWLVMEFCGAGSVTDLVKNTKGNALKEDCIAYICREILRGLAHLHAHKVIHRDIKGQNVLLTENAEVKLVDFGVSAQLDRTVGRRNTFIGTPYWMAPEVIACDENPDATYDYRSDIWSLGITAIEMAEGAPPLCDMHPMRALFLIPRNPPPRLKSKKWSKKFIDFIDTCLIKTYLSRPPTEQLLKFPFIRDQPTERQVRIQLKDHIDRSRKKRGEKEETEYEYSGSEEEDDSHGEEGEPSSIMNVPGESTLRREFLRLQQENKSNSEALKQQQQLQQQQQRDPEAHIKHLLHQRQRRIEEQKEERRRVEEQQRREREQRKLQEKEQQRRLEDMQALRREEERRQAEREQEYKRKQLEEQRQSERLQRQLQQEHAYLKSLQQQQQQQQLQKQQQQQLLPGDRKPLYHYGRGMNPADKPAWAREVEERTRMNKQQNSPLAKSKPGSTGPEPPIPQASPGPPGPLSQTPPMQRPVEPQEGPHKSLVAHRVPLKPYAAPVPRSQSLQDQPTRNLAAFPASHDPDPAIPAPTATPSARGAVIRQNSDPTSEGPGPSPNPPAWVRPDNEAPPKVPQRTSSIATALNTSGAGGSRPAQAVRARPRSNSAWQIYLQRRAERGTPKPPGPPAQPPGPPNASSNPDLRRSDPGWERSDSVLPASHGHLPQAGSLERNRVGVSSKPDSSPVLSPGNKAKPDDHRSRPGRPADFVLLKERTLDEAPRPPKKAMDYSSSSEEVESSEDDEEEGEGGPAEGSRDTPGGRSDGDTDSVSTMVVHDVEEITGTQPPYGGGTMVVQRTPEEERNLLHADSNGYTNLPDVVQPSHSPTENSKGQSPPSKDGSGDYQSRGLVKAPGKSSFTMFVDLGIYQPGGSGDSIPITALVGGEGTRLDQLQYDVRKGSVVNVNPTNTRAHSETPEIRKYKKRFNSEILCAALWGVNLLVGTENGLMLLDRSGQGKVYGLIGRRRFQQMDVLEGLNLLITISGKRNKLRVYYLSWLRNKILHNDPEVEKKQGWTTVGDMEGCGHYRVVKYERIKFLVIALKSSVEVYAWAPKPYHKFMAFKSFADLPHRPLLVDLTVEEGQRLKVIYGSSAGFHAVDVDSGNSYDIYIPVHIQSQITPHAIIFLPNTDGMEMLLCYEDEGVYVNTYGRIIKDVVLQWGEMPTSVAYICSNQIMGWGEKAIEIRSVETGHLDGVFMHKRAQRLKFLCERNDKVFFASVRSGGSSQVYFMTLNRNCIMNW
CSNK1D, sequence (P48730 whole entry): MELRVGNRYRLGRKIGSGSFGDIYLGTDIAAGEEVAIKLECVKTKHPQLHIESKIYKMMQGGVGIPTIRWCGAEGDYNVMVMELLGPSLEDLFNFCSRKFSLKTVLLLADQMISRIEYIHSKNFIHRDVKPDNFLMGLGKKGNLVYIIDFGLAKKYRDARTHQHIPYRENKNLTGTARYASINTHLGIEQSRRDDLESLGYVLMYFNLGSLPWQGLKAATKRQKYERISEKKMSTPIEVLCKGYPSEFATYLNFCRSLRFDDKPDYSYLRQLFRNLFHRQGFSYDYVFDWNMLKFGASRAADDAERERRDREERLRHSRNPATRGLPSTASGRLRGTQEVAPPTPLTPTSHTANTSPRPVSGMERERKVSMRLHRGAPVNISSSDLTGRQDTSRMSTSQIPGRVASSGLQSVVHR
CSK, sequence (P41240 whole entry): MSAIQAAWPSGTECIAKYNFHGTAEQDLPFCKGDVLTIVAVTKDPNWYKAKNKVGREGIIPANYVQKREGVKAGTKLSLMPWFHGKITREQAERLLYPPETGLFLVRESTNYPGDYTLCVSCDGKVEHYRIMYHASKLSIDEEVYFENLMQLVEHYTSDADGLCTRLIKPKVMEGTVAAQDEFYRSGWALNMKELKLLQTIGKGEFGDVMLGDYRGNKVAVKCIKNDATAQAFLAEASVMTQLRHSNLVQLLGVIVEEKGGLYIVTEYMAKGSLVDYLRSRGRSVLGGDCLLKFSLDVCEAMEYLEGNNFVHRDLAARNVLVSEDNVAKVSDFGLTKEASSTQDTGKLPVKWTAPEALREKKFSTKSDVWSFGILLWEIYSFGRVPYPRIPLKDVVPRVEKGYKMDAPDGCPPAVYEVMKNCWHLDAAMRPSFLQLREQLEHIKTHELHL
PAK2, sequence (Q13177 whole entry): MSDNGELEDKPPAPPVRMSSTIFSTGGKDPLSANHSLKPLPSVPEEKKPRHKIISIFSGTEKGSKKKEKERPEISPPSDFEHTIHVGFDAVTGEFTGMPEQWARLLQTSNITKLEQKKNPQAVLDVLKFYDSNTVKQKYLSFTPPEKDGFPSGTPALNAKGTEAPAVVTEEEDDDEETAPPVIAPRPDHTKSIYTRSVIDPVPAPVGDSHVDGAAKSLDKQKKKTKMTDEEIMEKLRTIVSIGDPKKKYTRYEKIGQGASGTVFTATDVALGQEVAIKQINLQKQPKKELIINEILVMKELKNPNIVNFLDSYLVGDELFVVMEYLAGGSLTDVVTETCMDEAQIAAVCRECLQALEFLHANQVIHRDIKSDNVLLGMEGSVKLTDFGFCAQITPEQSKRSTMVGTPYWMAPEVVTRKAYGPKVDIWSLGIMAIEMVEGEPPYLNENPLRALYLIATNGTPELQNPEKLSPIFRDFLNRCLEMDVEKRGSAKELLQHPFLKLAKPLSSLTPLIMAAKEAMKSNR

`C=CC(=O)Nc1cc(-n2c(=O)ccc3cnc4ccc(-n5cccn5)cc4c32)ccc1C` [CHMFL-BTK-11] was tested, and the remaining binding at 1 µM [1] was 85%, the remaining binding at 1 µM (MAP4K5) was 100% and the remaining binding at 1 µM (MYO3B) was 90%. The remaining binding at 1 µM [2] was 92%, the remaining binding at 1 µM [3] was 100% and the remaining binding at 1 µM (SIK2) was 98%. It also gave a remaining binding at 1 µM (SRC) of 98%, a remaining binding at 1 µM (BRSK2) of 86% and a remaining binding at 1 µM (ANKK1) of 81%. For the same compound, the remaining binding at 1 µM (EGFR(G719C)) was 97%, the remaining binding at 1 µM (EGFR) was 88% and the remaining binding at 1 µM (FLT3(D835H)) was 100%. For the same compound, the remaining binding at 1 µM (EPHB4) was 100%, the remaining binding at 1 µM (PDGFRA) was 100% and the remaining binding at 1 µM (EGFR(T790M)) was 58%. The remaining binding at 1 µM (FLT3-autoinhibited) was 100%, the remaining binding at 1 µM (CSK) was 100% and the remaining binding at 1 µM (PRKD2) was 100%. The remaining binding at 1 µM (CSNK1D) was 100%, the remaining binding at 1 µM (MAP3K2) was 99% and the remaining binding at 1 µM (PAK2) was 99%. For the same compound, the remaining binding at 1 µM (MINK) was 64%, the remaining binding at 1 µM (CDK11) was 89% and the remaining binding at 1 µM (RET(M918T)) was 100%. It also gave a remaining binding at 1 µM (CAMKK2) of 78%.
